From ChEMBL document CHEMBL1154544, “Antitumour polyether macrolides: four new halichondrins from the New Zealand deep-water marine sponge Lissodendoryx sp” (Bioorg Med Chem, 2009) come the findings set out here.

Values after ≈ are worked out from the molar mass of the structure shown.

The assay relates to P388. Briefly: Cytotoxicity against mouse P388 cells. Format: functional, cell-based.
`C=C1C[C@@H]2CC[C@@]34C[C@H]5O[C@H]6[C@@H](O3)[C@H]3O[C@H](CC[C@@H]3O[C@H]6[C@H]5O4)CC(=O)O[C@@H]3[C@@H](C)[C@@H]4O[C@@H]5C[C@]6(C[C@@H]7O[C@]8(C[C@H](C)[C@@H]9O[C@H](CC(C)=O)[C@H](O)C[C@@H]9O8)C[C@H](C)[C@@H]7O6)O[C@@H]5C[C@@H]4O[C@H]3C[C@H]3O[C@@H](CC[C@@H]1O2)C[C@@H](C)C3=C` had an IC50 of 0.76 ng/mL (≈ 0.695 nM).
For the compound `C=C1C[C@@H]2CC[C@@]34C[C@H]5O[C@H]6[C@@H](O3)[C@H]3O[C@H](CC[C@@H]3O[C@H]6[C@H]5O4)CC(=O)O[C@@H]3[C@@H](C)[C@@H]4O[C@@H]5C[C@]6(C[C@@H]7O[C@]8(C[C@H](C)[C@@H]9O[C@@H]%10CC(C(O)CCl)O[C@@H]%10C[C@@H]9O8)C[C@H](C)[C@@H]7O6)O[C@@H]5C[C@@H]4O[C@H]3C[C@H]3O[C@@H](CC[C@@H]1O2)C[C@@H](C)C3=C` (some centres not stated), the IC50 turned out to be 2 ng/mL (≈ 1.75 nM).
Consider `C=C1C[C@@H]2CC[C@@]34C[C@H]5O[C@H]6[C@@H](O3)[C@H]3O[C@H](CC[C@@H]3O[C@H]6[C@H]5O4)CC(=O)O[C@@H]3[C@@H](C)[C@@H]4O[C@@H]5C[C@]6(C[C@@H]7O[C@]8(C[C@H](C)[C@@H]9O[C@@H]%10CC(=O)O[C@@H]%10C[C@@H]9O8)C[C@H](C)[C@@H]7O6)O[C@@H]5C[C@@H]4O[C@H]3C[C@H]3O[C@@H](CC[C@@H]1O2)C[C@@H](C)C3=C`, for which the half-inhibitory concentration (IC50) stood at 1.1 ng/mL (≈ 1.02 nM). Compared with the last compound, the IC50 is about 1.8-fold lower.
For the compound `C=C1C[C@@H]2CC[C@@]34C[C@H]5O[C@H]6[C@@H](O3)[C@H]3O[C@H](CC[C@@H]3O[C@H]6[C@H]5O4)CC(=O)O[C@@H]3[C@@H](C)[C@@H]4O[C@@H]5C[C@]6(C[C@@H]7O[C@]8(C[C@H](C)[C@@H]9O[C@H](CC(=O)CCO)[C@H](O)C[C@@H]9O8)C[C@H](C)[C@@H]7O6)O[C@@H]5C[C@@H]4O[C@H]3C[C@H]3O[C@@H](CC[C@@H]1O2)C[C@@H](C)C3=C` [ISOHOMOHALICHONDRIN B], the half-maximal inhibitory concentration (IC50) turned out to be 0.18 ng/mL (≈ 0.16 nM). Against the preceding compound, the IC50 is about 6.1-fold lower.
Under `C=C1C[C@@H]2CC[C@@]34C[C@H]5O[C@H]6[C@@H](O3)[C@H]3O[C@H](CC[C@@H]3O[C@H]6[C@H]5O4)CC(=O)O[C@@H]3[C@@H](C)[C@@H]4O[C@@H]5C[C@]6(C[C@@H]7O[C@]8(C[C@H](C)[C@@H]9O[C@@H]%10CC(C(O)CO)O[C@@H]%10C[C@@H]9O8)C[C@H](C)[C@@H]7O6)O[C@@H]5C[C@@H]4O[C@H]3C[C@H]3O[C@@H](CC[C@@H]1O2)C[C@@H](C)C3=C` (some centres not stated) [HOMOHALICHONDRIN B] stands 0.22 ng/mL (≈ 0.196 nM).
For `C=C1C[C@@H]2CC[C@@]34C[C@H]5O[C@H]6[C@@H](O3)[C@H]3O[C@H](CC[C@@H]3O[C@H]6[C@H]5O4)CC(=O)O[C@@H]3[C@@H](C)[C@@H]4O[C@@H]5C[C@]6(C[C@@H]7O[C@]8(C[C@H](C)[C@@H]9OC(=O)C[C@@H]9O8)C[C@H](C)[C@@H]7O6)O[C@@H]5C[C@@H]4O[C@H]3C[C@H]3O[C@@H](CC[C@@H]1O2)C[C@@H](C)C3=C`, the concentration for half-maximal inhibition (IC50) turned out to be 1.1 ng/mL (≈ 1.08 nM).
Consider `C=C1C[C@@H]2CC[C@@]34C[C@H]5O[C@H]6[C@@H](O3)[C@H]3O[C@H](CC[C@@H]3O[C@H]6[C@H]5O4)CC(=O)O[C@@H]3[C@@H](C)[C@@H]4O[C@@H]5C[C@]6(C[C@@H]7O[C@]8(C[C@H](C)[C@@H]9O[C@H]([C@@H](O)C[C@@H](O)CO)C[C@@H]9O8)C[C@H](C)[C@@H]7O6)O[C@@H]5C[C@@H]4O[C@H]3C[C@H]3O[C@@H](CC[C@@H]1O2)C[C@@H](C)C3=C` [HALICHONDRIN B], for which the IC50 was 0.78 ng/mL (≈ 0.702 nM).
